Experimental data published in US11873291B2, “Quinoline cGAS antagonist compounds” (ImmuneSensor Therapeutics, Inc., priority 2020, dated 2024).
pIC50: −log10 of the molar value.

What follows are molecules tested against T1, recombinant human cGAS (aa147-522) (Homo sapiens, UniProt Q8N884) (assay: In vitro inhibition assay of cGAS activity (ATP consumption, KinaseGlo Max)). Conditions: Table 2, read-out: cGAS Inhibition Results IC50.
T1 construct: recombinant human cGAS (aa147-522); His6-SUMO (cleaved yes); made in house; host or cells: E. coli BL21/pLys
T1 sequence (Q8N884 147-522): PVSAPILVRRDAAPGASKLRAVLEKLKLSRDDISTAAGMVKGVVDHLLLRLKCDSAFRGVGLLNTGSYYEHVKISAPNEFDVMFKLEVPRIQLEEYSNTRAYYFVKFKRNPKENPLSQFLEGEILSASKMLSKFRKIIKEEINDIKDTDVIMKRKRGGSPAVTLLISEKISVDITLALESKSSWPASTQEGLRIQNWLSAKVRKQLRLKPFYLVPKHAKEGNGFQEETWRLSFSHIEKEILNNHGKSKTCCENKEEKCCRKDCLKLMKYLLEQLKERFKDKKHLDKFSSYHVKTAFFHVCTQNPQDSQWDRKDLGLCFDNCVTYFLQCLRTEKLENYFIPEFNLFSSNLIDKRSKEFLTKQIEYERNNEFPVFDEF
Format: biochemical
Outline: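 De-tagged recombinant human cGAS (aa147-522, 1.5 μg/mL) was incubated 20 min at 37 °C with herring testis DNA, 6.6 μM ATP and 0.1 mM GTP in Tris pH 7.5/MgCl2 buffer plus serial compound dilutions. Remaining ATP was read by KinaseGlo Max luminescence, and IC50 was fitted from % ATP consumption versus log concentration.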

Row | Structure (SMILES) | pIC50
1 | Cc1cc(N2CCNC(=O)CC2)c2ccc(Cl)c(Cl)c2n1 [I-310] | < 4.52
2 | CC(=O)N1CCOC(CNc2cc(-c3cn[nH]c3)c3ccc(Cl)c(Cl)c3n2)C1 (stereo not shown) [I-221, 1-(2-(((7,8-dichloro-4-(1H-pyrazol-4-yl)quinolin-2-yl)amino)methyl)morpholino)ethan-1-one] | > 5.70
3 | Clc1cc2nc(-c3ccccc3)cc(-n3ccnc3)c2cc1Cl [I-50] | > 5.70
4 | CCN1CCN(c2cc(-n3ccnc3)c3ccc(Cl)c(Cl)c3n2)CC1C(=O)O (stereo not shown) [I-80] | > 5.70
5 | Clc1ccc2c(-n3ccnc3)cc(OCCCN3CCOCC3)nc2c1 [I-284] | < 4.52
6 | C[C@@]1(C(=O)O)CCCN1c1cc(-n2ccnc2)c2ccc(Cl)c(Cl)c2n1 [I-436] | 4.52 to 5.70
7 | Cc1cc(N2CCCC(O)CC2)c2ccc(Cl)c(Cl)c2n1 (stereo not shown) [I-311] | < 4.52
8 | NS(=O)(=O)CCNc1cc(-c2cn[nH]c2)c2cc(Cl)cc(Cl)c2n1 [I-264] | > 5.70
9 | Brc1ccc2c(-n3ccnc3)cc(-c3cccs3)nc2c1 [I-380, 7-bromo-4-(1H-imidazol-1-yl)-2-(thiophen-2-yl)quinoline] | 4.52 to 5.70
10 | OCC1COCCN1c1cc(-n2ccnc2)c2ccc(Cl)c(Cl)c2n1 (stereo not shown) [I-97] | 4.52 to 5.70
11 | Clc1ccc2c(-c3cn[nH]c3)cc(NCC3COCCN3)nc2c1Cl (stereo not shown) [I-217] | < 4.52
12 | CC(C)(C)O[C@@H]1C[C@@H](C(=O)O)N(c2cc(-c3cn[nH]c3)c3ccc(Cl)c(Cl)c3n2)C1 [I-437] | > 5.70
13 | O=C(O)c1cccc(Oc2cc(-n3ccnc3)c3ccc(Cl)cc3n2)c1 [I-282] | 4.52 to 5.70
14 | O=C(O)C1CN(c2cc(-n3ccnc3)c3ccc(Cl)c(Cl)c3n2)CCO1 (stereo not shown) [I-91] | > 5.70
15 | Clc1ccc2c(-n3ccnc3)cc(N3CCNCC3)nc2c1 [I-76, 7-chloro-4-(1H-imidazol-1-yl)-2-(piperazin-1-yl)quinoline] | 4.52 to 5.70
16 | O=S(=O)(O)CCN(Cc1ccccc1)c1cc(-n2ccnc2)c2ccc(Cl)c(Cl)c2n1 [I-164, 2-(benzyl(7,8-dichloro-4-(1H-imidazol-1-yl)quinolin-2-yl)amino)ethane-1-sulfonic acid] | 4.52 to 5.70
17 | CS(=O)(=O)C1CCCN(c2cc(-n3ccnc3)c3ccc(Cl)cc3n2)C1 (stereo not shown) [I-117] | 4.52 to 5.70
18 | NS(=O)(=O)CCNc1cc(-c2cn[nH]c2)c2ccc(Cl)c(Cl)c2n1 [I-203] | > 5.70
19 | O=C(Nc1ccccc1)[C@@H]1CCCN1c1cc(-n2ccnc2)c2ccc(Cl)c(Cl)c2n1 [I-348] | < 4.52
20 | O=C(CO)Nc1cc(C(=O)O)cc(-c2cc(-n3ccnc3)c3ccc(Cl)cc3n2)c1 [I-23, 3-(7-chloro-4-(1H-imidazol-1-yl)quinolin-2-yl)-5-(2-hydroxyacetamido)benzoic acid] | > 5.70
21 | O=C(O)CNCCCc1cc(-c2cn[nH]c2)c2ccc(Cl)c(Cl)c2n1 [I-336, (3-(7,8-dichloro-4-(1H-pyrazol-4-yl)quinolin-2-yl)propyl)glycine] | 4.52 to 5.70
22 | CN(CCS(N)(=O)=O)c1ccc2ccc(Cl)c(Cl)c2n1 [I-161] | < 4.52

Same assay, conditions: Table 3, read-out: cGAS Inhibition Results IC50

Row | Structure (SMILES) | pIC50
23 | O=C(O)[C@H](O)[C@@H]1CCCN1c1cc(-n2ccnc2)c2ccc(Cl)c(Cl)c2n1 [I-661, (R)-2-((S)-1-(7,8-dichloro-4-(1H-imidazol-1-yl)quinolin-2-yl)pyrrolidin-2-yl)-2-hydroxyacetic acid] | > 5.70
24 | COC(=O)C1CCCN(C(=O)C[C@@H]2CCCN2c2cc(-n3ccnc3)c3ccc(Cl)c(Cl)c3n2)C1 (stereo partly shown) [I-535] | 4.52 to 5.70
25 | O=C(O)CNC(=O)O[C@@H]1C[C@@H](C(=O)O)N(c2cc(-n3ccnc3)c3ccc(Cl)c(Cl)c3n2)C1 [I-607] | > 5.70
26 | O=C(NC12CC(C(=O)O)(C1)C2)[C@@H]1CCCN1c1cc(-n2ccnc2)c2ccc(Cl)c(Cl)c2n1 [I-551] | < 4.52
27 | NC(=O)CNC(=O)[C@@H]1CCCN1c1cc(-n2ccnc2)c2ccc(Cl)c(Cl)c2n1 [I-608] | 4.52 to 5.70
28 | COC(=O)[C@@H]1[C@@H](OC)CCN1c1cc(-n2ccnc2)c2ccc(Cl)c(Cl)c2n1 [I-646, methyl (2S,3S)-1-(7,8-dichloro-4-(1H-imidazol-1-yl)quinolin-2-yl)-3-methoxypyrrolidine-2-carboxylate] | 4.52 to 5.70
